We go through 3 molecules from paper PMC7719179, “Small molecule inhibition of Dynamin-dependent endocytosis targets multiple niche signals and impairs leukemia stem cells” (Nature Communications, 2020).

In test [1] the test system is Lmo2^Tg DN3a thymocytes. As to the kind of experiment: Absolute numbers of co-cultured Lmo2^Tg DN3a thymocytes after in vitro treatment. The test is classed as cell-based, mouse. Conditions: 72 h, Dynole 34-2 0.2 μM, Ruxolitinib 0.2 μM, DAPT 0.1 μM. As to the method:
Pre-leukemic and leukemic thymocytes were purified by flow cytometry and co-cultured on GFP-positive OP9 and OP9-DL1 stromal cell lines, as described previously. Thymocytes were co-cultured in reconstituted alpha-MEM medium (#12318, Gibco, Grand Island NY, USA) supplemented with 20% FCS (#12318), HEPES 10 mM (#15630-080), sodium pyruvate 1 mM (#11360-070), β-mercaptoethanol 55 μM (#21985-023), Glutamax 2 mM (#15750-060), 1% Penicillin/Streptomycin (#15140-122), 5 ng/mL rmFLT-3 ligand (#250-31 L, Pepro Tech), 5 ng/mL rmIL-7 (#217-17, Pepro Tech) and 25 ng/mL rmSCF (#250-03, Pepro Tech). […]

For test [2], the system named is Ba/F3-IL7R^Stat5-CA cells. Description: Cytotoxic activity in IL-7-dependent and IL-7-independent Ba/F3-IL7R^Stat5-CA cells. The test is classed as cell-based, murine. The conditions noted are these: for Survival (%) over survival at day 0, reported as 100%: Ba/F3-IL7R^Stat5-CA cells, dose = IC50 or LC50 of each drug; for sensitivity of Ba/F3-IL7R^Stat5-CA cells with constitutive pStat5 (doxycycline): result in words. An excerpt: The doxycycline-inducible dual-colour TRMPVIR (TRE-dsRed-miR30/shRNA-PGK-Venus-IRES-rtTA3) retroviral vector[84] was kindly given by R. A. Dickins and was modified by replacing the dsRed-miR30/shRNA sequence by a T2A self-cleaving peptide[85] fusioned with the mCherry fluorescent protein (from TRIPZ, Addgene) inserted into the BamHI and EcoRI sites of the plasmid downstream of the TRE promoter to generate the TxTCPVIR (TRE-gene-T2A-mCherry-PGK-Venus-IRES-rtTA3) retroviral vector. Using standard cloning techniques, we inserted the full-length sequence of Stat5-CA from the pMig-R1 construct into the TxTCPVIR vector to generate the TxTCPVIR-Stat5-CA construct. All subcloned constructs were verified by DNA sequencing (Micromon, Monash University, Australia). Detailed cloning strategies, primers sequences and vectors are available on request.
Ba/F3 cells (kindly provided by a person from The Walter and Eliza Hall Institute of Medical Research) were infected with pMIG-R1/Il7r retroviral supernatants produced in 293T cells, and transduced cells were sorted with a BD Influx (BD Australia) and selected by culture in medium supplemented with 5 ng/mL rmIL-7 (#217-17, Pepro Tech, Rocky Hill NJ, USA) for 7 days. Ba/F3 cells stably expressing Il7r (Ba/F3-IL7R) were infected with TxTCPVIR-Stat5-CA retroviral supernatants produced in 293T. Cell sorting was performed with a BD Influx and transduced cells were treated with doxycycline for 48 h to induce the expression of the Stat5-CA-T2A-mCherry fusion protein.
Flow cytometry analyses were performed as previously described[10],[86] on single-cell suspensions stained using BD Pharmingen antibodies (BD Australia, North Ryde NSW, Australia) against mouse CD4 (RM4-5), CD8 (53-6.7), CD25 (PC61.5), CD44 (IM7), CD45.1 (A20), CD45.2 (104), Thy1.2 (53-2.1; #561616), TCRβ (H57-597), CD117 (ACK45), CD135 (A2F10.1), CD150 (TC15-12F12.2; #562373), B220 (RA3-6B2; #563708), CD3 (145-2C11; #563004), CD19 (ID3; #557655), Gr-1 (RB6-8C5; #563299 and #565033), CD11b (M1/70; #563015 and #560455), Ter119 (Ter119; #565523 and #557909), Sca-1 (D7; #558160) and an eBioscience antibody (eBioscience, Invitrogen) against mouse NOTCH1 (22E5). DN3 populations and IL-7R were stained using BioLegend antibodies (Australian Biosearch, Balcatta WA, Australia) against mouse CD28 (E18) and CD127 (A7R34), respectively. Apoptosis was measured using an antibody against AnnexinV (#556420, BD Australia) and the […] Sytox Blue (BD Australia) following the manufacturer’s protocol.

“And” between values parts separate entries of the source, which are not always exact repeats. Equal values may be shown once.

As to `C[C@H](NC(=O)Cc1cc(F)cc(F)c1)C(=O)N[C@H](C(=O)OC(C)(C)C)c1ccccc1` [DAPT, N-[N-(3,5-Difluorophenacetyl)-L-alanyl]-S-phenylglycine t-butyl ester], in test [1], the “Absolute numbers DN3a cells” value is 26800 and 17800 and 27000 and 25800 and 24600.

Take `N#CC[C@H](C1CCCC1)n1cc(-c2ncnc3[nH]ccc23)cn1` [Ruxolitinib]: the “Survival (%) over survival at day 0, reported as 100%” value (“Survival (%) over survival” for short) in test [2] (+IL-7 -DOX, 0 h) was 101.66% and 101.91% and 100.26% and 101.92% and 100.41% and 100.83%; in test [2] (+IL-7 -DOX, 24 h) it was 71.50% and 70.41% and 55.25% and 49.40% and 37.10% and 63.11%; in test [2] (-IL-7 +DOX, 0 h), 100.45% and 99.83% and 99.53% and 102.59% and 101.73% and 102.89%; in test [2] (-IL-7 +DOX, 24 h), 85.97% and 82.57% and 104.88% and 98.10% and 101.20% and 101.43%; in test [2] (-IL-7 +DOX, 48 h), 97.70% and 95.00% and 95.90% and 97.50% and 97.30% and 99.10%; in test [2] (-IL-7 +DOX, 72 h), 94.40% and 93.30% and 85.80% and 83.20% and 99.40% and 84.90%. Also, the “Survival (%) over survival” value in test [2] (-IL-7 +DOX, 96 h) was 93.30% and 85.80% and 83.20% and 99.40%; in test [2] (-IL-7 +DOX, 120 h) it was 92.90% and 90.20% and 86.50% and 89.30% and 78.60% and 92.10%. Also, the “sensitivity of Ba/F3-IL7R^Stat5-CA cells with constitutive pStat5 (doxycycline)” value in test [2] was “resistant”.

Take `CCCCCCCCNC(=O)C(C#N)=Cc1cn(CCCN(C)C)c2ccccc12` [Dynole 34-2, 2-Cyano-N-octyl-3-(1-(3-dimethylaminopropyl)-1H-indol-3-yl)-acrylamide]: the “Survival (%) over survival” value is 100.02% and 100.26% and 101.92% and 100.41% and 100.83% in test [2] (+IL-7 -DOX, 0 h); 43.12% and 51.68% and 50.50% and 59.30% and 47.40% and 40.60% in test [2] (+IL-7 -DOX, 24 h); 14.22% and 14.73% and 23.20% and 19.38% and 17.76% and 14.96% in test [2] (+IL-7 -DOX, 72 h); 9.23% and 10.77% and 10.13% and 6.51% and 4.52% and 2.59% in test [2] (+IL-7 -DOX, 96 h); 100.62% and 100.47% and 99.53% and 102.59% and 101.73% and 102.89% in test [2] (-IL-7 +DOX, 0 h); 90.53% and 91.07% and 101.15% and 104.21% and 101.37% and 100.26% in test [2] (-IL-7 +DOX, 24 h). Also, the “Survival (%) over survival” value in test [2] (-IL-7 +DOX, 48 h) is 94.10% and 95.40% and 97.40% and 99.30% and 95.90%; in test [2] (-IL-7 +DOX, 72 h), 93.90% and 97.20% and 90.70% and 94.80% and 93.20% and 97.10%; in test [2] (-IL-7 +DOX, 96 h), 93.40% and 86.60% and 95.50% and 96.20% and 87.10% and 90.40%; in test [2] (-IL-7 +DOX, 120 h), 91.10% and 96.40% and 90.00% and 90.90% and 93.10% and 83.00%. In addition, the “sensitivity of Ba/F3-IL7R^Stat5-CA cells with constitutive pStat5 (doxycycline)” value in test [2] is “resistant”. In addition, the “Absolute numbers DN3a cells” value in test [1] is 28200 and 18800 and 27200 and 23300 and 23200.
